System: Orientia tsutsugamushi
Experiment: Antimicrobial activity against doxycyclin-resistant Orientia tsutsugamushi in patient of scrub typhus assessed as recovery from infection
Assay type: functional

SMILES	Activity [%]
C[C@H]1c2cccc(O)c2C(=O)C2=C(O)[C@]3(O)C(=O)C(C(N)=O)=C(O)[C@@H](N(C)C)[C@@H]3[C@@H](O)[C@@H]21.O [DOXYCYCLINE]	97.8
CC[C@H]1OC(=O)[C@H](C)C(=O)[C@H](C)[C@@H](O[C@@H]2O[C@H](C)C[C@H](N(C)C)[C@H]2O)[C@](C)(OC)C[C@@H](C)C(=O)[C@H](C)[C@H]2N(CCCCn3cnc(-c4cccnc4)c3)C(=O)O[C@]12C [TELITHROMYCIN]	100
